# Like-named read-outs stand apart in the source and are kept apart here.
# Legend:
# RVFV MP12 ∆NSs-Luc = test: microbe, parasite or virus in culture; format: cell-based, Rift Valley fever virus; details: for inhibition at 100 µM: read-out: inhibition of RVFV MP12-luc
# RVFV MP12 = format: cell-based, Rift Valley fever virus
# [1] = test system: S6 ribosomal protein (Ser235/236) phosphorylation and RVFV NP; format: cell-based, mouse
# in vitro = details: mouse
# RVFV = details: mouse, in vivo; cited from earlier work
SMILES,"EC50 (RVFV MP12 ∆NSs-Luc; Rift Valley fever virus, 18 h)",inhibition at 100 µM (RVFV MP12 ∆NSs-Luc; Rift Valley fever virus),effect on RVFV titers (RVFV MP12),levels of RVFV NP [1],phosphorylation of S6 ribosomal protein (Ser 235/236) [1],decrease in viability (H2.35 cells; mouse),CC50 (in vitro),protection from RVFV induced pathogenesis (RVFV),cell toxicity (H2.35 cells),effect of increasing drug concentration on viral replication (luciferase) (RVFV MP12 ∆NSs-Luc),increase of infectious viral titer (RVFV MP12),EC50 (RVFV MP12 ∆NSs-Luc; read-out: EC50),CC50 (H2.35 cells)
O=C(NOC[C@H](O)CO)c1ccc(F)c(F)c1Nc1ccc(I)cc1F [PD0325901],> 50 µM,52%,minimal inhibition,minimal inhibition,minimal inhibition,~ 20%,> 100 µM,–,–,–,–,–,–
CO[C@H]1C[C@@H]2CC[C@@H](C)[C@@](O)(O2)C(=O)C(=O)N2CCCC[C@H]2C(=O)O[C@H]([C@H](C)C[C@@H]2CC[C@@H](O)[C@H](OC)C2)CC(=O)[C@H](C)/C=C(\C)[C@@H](O)[C@@H](OC)C(=O)[C@H](C)C[C@H](C)/C=C/C=C/C=C/1C [Rapamycin],18 µM,–,–,markedly decreased,markedly decreased,–,> 100 µM,protects mice,–,–,–,–,–
C[S+]([O-])c1ccc(-c2nc(-c3ccncc3)c(-c3ccc(F)cc3)[nH]2)cc1 (centres unmarked) [SB203580],–,45%,minimal inhibition,minimal inhibition,minimal inhibition,–,> 100 µM,–,no appreciable cell toxicity,–,–,–,–
CC(C)CCN1c2nc(Nc3cc(F)c(O)c(F)c3)ncc2N(C)C(=O)C1C (centres unmarked) [BI-D1870],–,–,–,modestly increased,no apparent change,–,–,–,–,viral replication increased,approximately 0.5 log,–,–
CCc1cncnc1N1CCN(Cc2nc3ccc(C(F)(F)F)cc3[nH]2)CC1 [PF-4708671],–,–,–,decreased,decreased phosphorylation,–,–,–,–,–,–,17 µM,> 50 µM

# From paper PMC5923485 (Viruses, 2018)
